Like-named read-outs stand apart in the source and are kept apart here.
Assays:
[1] = test system: patients with prostate cancer; assay: PET imaging in patients with prostate cancer
Procedure: The distribution of FCH in PET imaging studies was evaluated in 14 patients with prostate cancer, 14 patients with breast cancer, and 5 patients with brain tumors. Imaging was performed using the Advance PET scanner (GE Medical Systems, Milwaukee, Wis.). […] In prostate cancer patients, a transmission scan of the pelvic region was obtained before administration of radiotracer. FCH (2.5-5 mCi) was administered intravenously, and dynamic imaging of the pelvis region was commenced for 20-30 min. During image reconstruction, the emission data in the pelvic region were corrected for photon attenuation using the transmission scan. Immediately following the dynamic scan, a whole-body emission scan was performed without transmission scanning for attenuation correction. The images were reconstructed using an Ordered Subset Expectation Maximum (OS-EM) algorithm. Regions-of-interest were drawn manually on the attenuation corrected images for evaluation of FCH kinetics in tissues. Standardized uptake values of FCH uptake in tissues were calculated using the attenuation-corrected images according to the equation: [formula]
Patient 2: Transmission and FCH emission scans of a person with hormone naive clinical stage T2 prostate cancer were commenced over the lower pelvis.
The same patient was scanned with FDG within the same week (FIG. 8).
Patient 4: A person with a history of clinical stage T3b prostate cancer treated by radical retropubic prostatectomy was diagnosed with metastatic disease by bone scan. FCH-PET imaging was performed before and after initiating androgen deprivation therapy. In the first study, whole-body emission scanning was started 5 min after injection, beginning at the pelvic region in order to image the pelvis and prostatic bed before arrival of urinary radioactivity. […] The patient was rescanned 2 weeks after initiating androgen deprivation therapy.
Patient 5: A person was initially diagnosed five years prior with locally advanced clinical stage T3NOMO prostate cancer and underwent radical prostatectomy followed by external beam radiation to the prostate bed. […] The patient was then treated with Zolex and Casodex.

[2] = test system: patients with breast cancer; assay: PET imaging in patients with breast cancer; type: in vivo, human; conditions: person, metastatic breast cancer
Procedure: In breast cancer patients, whole-body PET scans were obtained, beginning at 10 min post-administration of FCH. In patients with brain tumors, PET scans of the brain were obtained, beginning at 5 min post-administration of FCH.
Thirteen patients with metastatic breast cancer and one patient with both primary and metastatic breast cancer were each imaged with both FCH-PET and FDG-PET within a period of less than one month.
A person had undergone re-excision of right breast intraductal carcinoma 4 yr prior, then right modified radical mastectomy 3 yr prior followed by tamoxifen chemotherapy. Six months prior to the PET scans, metastatic breast cancer was detected by palpation (right breast sternal mass) and CT (mediastinal and hilar adenopathies, mass in right anterior pelvis). Tamoxifen therapy was stopped. […] Uptake of FCH was also observed in the corresponding tumors: sternal mass (SUV=14.6), mediastinal and hilar adenopathies (SUVs˜8.5), pelvic mass (SUV=6.5). […] Smaller metastases were indicated on the FCH-PET scan in the right chest wall and left lung that were not seen on the FDG-PET scan. Concerning the anterior pelvic tumor, there was observed a homogenous distribution of FDG across the tumor in the FDG-PET scan, whereas the FCH was preferentially distributed on the periphery of the tumor.

[3] = test system: mice with PC-3 xenografts
Procedure: Body weight and tumor volume were measured weekly and tumor volume (mm3) was calculated using the formula S2×L/2, where S and L represent the small and large diameters of the tumor, respectively.
A prescribed duration of time was allowed before procurement of heart, liver, lung, blood, kidney, bone (femur), brain (whole), prostate gland, tumor, bladder, and skeletal muscle. The tissues were weighed, and counted for ^18F in a gamma counter, then dissolved in Solvable (Dupont, Boston Mass.) and counted for ^14C in a liquid scintillation counter. For the bladder, the percentage of the injected dose in the urine was determined. For all other tissues, radiotracer uptake was calculated as: […]

yeast choline kinase = biological target: T1, yeast choline kinase (Saccharomyces cerevisiae, UniProt P20485); assay: In vitro phosphorylation by yeast choline kinase; type: biochemical; conditions: 1 μM choline; for In vitro phosphorylation: 25 mU/ml yeast choline kinase, 23° C., 10 min, n = 5
T1 sequence (P20485 1-582): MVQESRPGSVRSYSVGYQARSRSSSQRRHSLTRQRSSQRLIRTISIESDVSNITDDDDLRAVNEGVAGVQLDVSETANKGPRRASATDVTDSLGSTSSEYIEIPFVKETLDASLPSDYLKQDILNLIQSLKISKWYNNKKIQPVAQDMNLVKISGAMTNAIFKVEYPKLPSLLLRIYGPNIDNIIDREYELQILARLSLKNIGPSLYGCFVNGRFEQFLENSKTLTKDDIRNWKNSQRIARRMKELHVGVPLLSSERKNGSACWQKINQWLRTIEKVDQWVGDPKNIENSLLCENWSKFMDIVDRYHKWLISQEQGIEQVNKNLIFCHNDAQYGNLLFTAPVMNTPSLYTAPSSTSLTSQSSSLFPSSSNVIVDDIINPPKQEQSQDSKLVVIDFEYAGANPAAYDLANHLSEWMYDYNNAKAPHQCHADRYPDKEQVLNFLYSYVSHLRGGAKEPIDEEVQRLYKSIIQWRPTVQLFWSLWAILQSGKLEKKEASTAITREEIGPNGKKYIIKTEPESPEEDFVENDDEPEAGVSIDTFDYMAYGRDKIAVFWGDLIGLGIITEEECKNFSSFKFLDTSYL
Procedure: The test tube was gently agitated throughout the incubation period. The reaction was stopped by placing the tube in a boiling water bath for 2 min. To serve as controls, some samples were placed directly in the boiling water bath after addition of all substrates. […] The percentage of radioactivity converted to the phosphorylated form was calculated.

[4] = test system: PC-3 human prostate cancer cells; assay: Accumulation of radiotracers by cultured PC-3 cells; type: cell-based
Procedure: The incubation media utilized for the experiments differed according to the cancer cell type (Table 1). On the day of the study, the medium was refreshed using a volume of 1 ml in each well. Cells were incubated in control conditions or with the addition of metabolic and growth factor receptor inhibitors to test the sensitivity of uptake of the radiotracers to specific inhibitions. […] Following a 30-min incubation period, the radiotracers (e.g., FDG or FCH) were added (˜2 µCi/well) and the cells were incubated for 2 hr. The cells were washed three times with phosphate buffered saline solution, released from the plates by briefly incubating with 0.05% trypsin in DMEM, transferred to test tubes, and counted for F-18 radioactivity in a gamma counter. The amount of radioactivity in the cells was normalized by the dose administered to each well.
The present work studies the structure-activity relationships for purposes of optimization of the molecule for imaging prostate cancer. […] A number of structural analogs of choline were labeled as N-[^18F]fluoromethyl derivatives via the intermediate [^18F]fluorobromomethane (see Table 3). Uptake of the radiotracers was assessed in cultured PC-3 human prostate cancer cells and in a murine PC-3 xenograft model.

normal human subjects = conditions: cited from earlier work
BALB/c nude mice = assay: Acute toxicity study in mice; type: in vivo; conditions: 1 mg/kg body weight
Procedure: Four unanesthetized BALB/c nude mice were administered 1 mg/kg [^19F]FCH via tail vein injection and monitored for 48 hr. This dose represented an approximately 300,000 fold excess of FCH in comparison to the normal dose that a 70 kg person would receive in a [^18F]FCH study. The mice were euthanized at 48 hr.
Acute toxicity of 1 mg/kg body weight of [^19F]FCH was determined in four untreated BALB/c mice. […] Based on estimates of specific activity of the [^18F]FCH (2 Ci/mmol), the normal dose of FCH in the radiotracer preparation would be a factor of 300,000 times lower than the dose given in this toxicity study.

[5] = test system: PC-3 prostate cancer cells; assay: Analysis of radiolabeled metabolites in PC-3 prostate cancer cells; type: cell-based, human; conditions: PC-3 cells, 2 hr
Procedure: The primary hydrophilic metabolites of choline in mammals is phosphocholine and betaine. […] The HPLC system used a microprocessor-controlled solvent delivery system and a silica column (Adsorbosphere Silica (10μ), 250×4.6 mm, Alltech, Deerfield, Ill.). The column was kept at room temperature and the flow rate was maintained at 1.5 ml/min. […] Fractions of effluent were collected every 0.5 min and first counted for ^18F-radioactivity in a well-counter for experiments involving [^18F]FCH, then transferred to scintillation vials for counting for ^14C-radioactivity. The column was equilibrated for 6 min with Buffer A before injection. After the injection (<100 μl), Buffer A was delivered for 6 min which eluted betaine (3 min) from the column. […] Re-equilibration of the column with 100% A for 6 min preceded the next injection.
Methanol (1 ml) was added to each well and the cells were lysed by maintaining the temperature at 37° C. for 30 min. The methanol phase was transferred to a glass test tube. Each well was rinsed with an additional 0.5 ml methanol which was added to the original fraction. To each tube, 3 ml chloroform and 1 ml 0.25 M sodium phosphate (pH=4.5) were added to separate lipids from water-soluble molecules. After vigorous mixing of the samples for 1 min, the two phases were separated, and a 0.5 ml aliquot of each phase was counted for ^18F and ^14C radioactivity. The aqueous phase was further analyzed for water-soluble metabolites using the gradient-HPLC method previously described.
Cells incubated in 6-well plates for 2 hr with radiotracers were thoroughly washed to remove all extracellular radioactivity. The cells were lysed in methanol and the methanol solution added to chloroform to solubilize all lipophilic metabolites.

In the case of `OC[C@H]1OC(O)[C@H]([18F])[C@@H](O)[C@@H]1O` (some centres unmarked) [FDG, [^18F]fluoro-2-deoxy-glucose, reference compound], the “SUV of osseous lesion (pubic ramus)” value ([1]; Example 11 patient, metastatic prostate cancer) was 6.5, the “SUV values relative to FCH in the same lesions” value ([1]; Patient 3) was “approximately one half” and the “SUV index in osseous lesions” value ([1]; patient #3, FIG. 8) was 4.1. For the same compound, the “SUV of pelvic tumor / pelvic mass” value [2] was 9.5, the “SUV of sternal mass” value [2] was 5.0 and the “SUVs of mediastinal and hilar adenopathies” value [2] was about 5.5. The “Uptake in Blood” value ([3]; 45 min) was 2.8 ± 0.009 % dose kg/100 g, the “Uptake in Brain” value ([3]; 45 min) was 8.0 ± 0.7 % dose kg/100 g and the “Uptake in Heart” value ([3]; 45 min) was 48.2 ± 17.9 % dose kg/100 g. For the same compound, the “Uptake in Kidney” value ([3]; 45 min) was 5.3 ± 1.9 % dose kg/100 g, the “Uptake in Liver” value ([3]; 45 min) was 1.5 ± 0.4 % dose kg/100 g and the “Uptake in Lung” value ([3]; 45 min) was 7.4 ± 3.1 % dose kg/100 g. The “Uptake in Prostate” value ([3]; 45 min) was 2.3 ± 0.4 % dose kg/100 g, the “Uptake in Skeletal Muscle” value ([3]; 45 min) was 8.3 ± 0.4 % dose kg/100 g and the “Uptake in Tumor” value ([3]; 45 min) was 8.9 ± 0.7 % dose kg/100 g.

With `C[N+](C)(CCO)CC[18F]` [HARA-1, 2-[^18F]fluoroethyl-dimethyl-2-hydroxyethyl-ammonium, reference compound] the “phosphorylation rate, less than for FCH” value (yeast choline kinase) was “approximately 30%”, the In vitro phosphorylation (yeast choline kinase) was 43.4 ± 3.4 % and the “accumulation by cultured PC-3 cells compared with other tracers” value ([4]; control conditions) was “one fifth of the uptake of FCH”. For the same compound, the “Uptake by PC-3 cancer cells, Control” value ([4]; control, 2 hr incubation) was 0.32 ± 0.05 % dose/2 hr/105 cells plated, the “Uptake by PC-3 cells” value ([4]; inhibitor none) was 0.322 ± 0.054 % dose/2 hr/10^5 cells plated and the “urinary excretion compared with CH” value (normal human subjects) was “more prominent urinary excretion of radioactivity”.

In the case of `C[N+](C)(CF)CCO.[Cl-]` [[^19F]FCH, Dimethylfluoromethyl-2-hydroxyethylammonium Chloride], the behavioural/movement abnormalities (BALB/c nude mice; 48 hr monitoring) was “Neither were any behavioural/movement abnormalities observed” and the deaths (BALB/c nude mice; tail vein, up to 48 hr, four mice) was “No deaths were observed”.

In the case of `C[N+](C)(C)CCO` [CH, [methyl-^14C]Choline, reference compound], the In vitro phosphorylation (yeast choline kinase) was 55.9 ± 11.0%, the “oxidation in the cancer cells (betaine / fluorobetaine by HPLC)” value [5] was “negligible” and the “Uptake in Blood” value ([3]; 10 min) was 2.1 ± 0.3 % dose kg/100 g. For the same compound, the “Uptake in Brain” value ([3]; 10 min) was 1.4 ± 0.7 % dose kg/100 g, the “Uptake in Heart” value ([3]; 10 min) was 20.3 ± 7.2 % dose kg/100 g and the “Uptake in Kidney” value ([3]; 10 min) was 99.0 ± 12.9 % dose kg/100 g. For the same compound, the “Uptake in Liver” value ([3]; 10 min) was 52.3 ± 11.9 % dose kg/100 g, the “Uptake in Lung” value ([3]; 10 min) was 26.0 ± 9.6 % dose kg/100 g and the “Uptake in Prostate” value ([3]; 10 min) was 9.0 ± 6.8 % dose kg/100 g. For the same compound, the “Uptake in Skeletal Muscle” value ([3]; 10 min) was 4.7 ± 1.7 % dose kg/100 g, the “Uptake in Tumor” value ([3]; 10 min) was 3.2 ± 1.8 % dose kg/100 g and the “Uptake in Blood” value ([3]; 30 min) was 1.5 ± 0.9 % dose kg/100 g. The “Uptake in Brain” value ([3]; 30 min) was 1.0 ± 0.8 % dose kg/100 g, the “Uptake in Heart” value ([3]; 30 min) was 9.7 ± 1.9 % dose kg/100 g and the “Uptake in Kidney” value ([3]; 30 min) was 53.4 ± 7.3 % dose kg/100 g. The “Uptake in Liver” value ([3]; 30 min) was 65.2 ± 19.4 % dose kg/100 g, the “Uptake in Lung” value ([3]; 30 min) was 9.6 ± 6.6 % dose kg/100 g and the “Uptake in Prostate” value ([3]; 30 min) was 5.9 ± 2.5 % dose kg/100 g. The “Uptake in Skeletal Muscle” value ([3]; 30 min) was 2.5 ± 1.5 % dose kg/100 g, the “Uptake in Tumor” value ([3]; 30 min) was 4.8 ± 1.6 % dose kg/100 g and the “Uptake in Blood” value ([3]; 60 min) was 2.2 ± 1.0 % dose kg/100 g. The “Uptake in Brain” value ([3]; 60 min) was 1.7 ± 0.6 % dose kg/100 g, the “Uptake in Heart” value ([3]; 60 min) was 9.1 ± 2.5 % dose kg/100 g and the “Uptake in Kidney” value ([3]; 60 min) was 41.5 ± 15.0 % dose kg/100 g. For the same compound, the “Uptake in Liver” value ([3]; 60 min) was 67.1 ± 49.7 % dose kg/100 g, the “Uptake in Lung” value ([3]; 60 min) was 16.7 ± 3.7 % dose kg/100 g and the “Uptake in Prostate” value ([3]; 60 min) was 5.5 ± 2.6 % dose kg/100 g. For the same compound, the “Uptake in Skeletal Muscle” value ([3]; 60 min) was 2.8 ± 1.7 % dose kg/100 g, the “Uptake in Tumor” value ([3]; 60 min) was 6.7 ± 2.5 % dose kg/100 g and the “injected dose in the urinary bladder” value ([3]; at 30 min) was 1%.

Source: patent US6630125B2, “18F-labeled choline analogs” (priority 2000, dated 2003)
